Measured values as given in patent publication US10765114B2, “4-amino-6-(pyridyl and 2-substitutedphenyl)-picolinates and 6-amino-2-(pyridyl and 2-substitutedphenyl)-pyrimidine-4-carboxylates and their use as herbicides” (Dow AgroSciences LLC, priority 2013, dated 2020).
Like-named read-outs stand apart in the source and are kept apart here.

Tests used:
[1] = system: Key Grass and Sedge Weeds as well as Grass Crops; assay: Post-Emergent Test II (Table 6); format: in vivo; conditions: post-emergence, 336 h, 14 days after application; for pest or weed control at 70 g/ha: 70 g ai/ha; for pest or weed control at 140 g/ha: 140 g ai/ha
Procedure, shortened: (§1)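 Plants grown in a greenhouse (~15 h photoperiod, 23-29° C day) to first or second true leaf stage were sprayed post-emergence at 187 L/ha with compound in acetone/DMSO-based aqueous spray containing crop oil concentrate and surfactant, applied at a high rate plus ½× to 1/16× serial rates. Injury was scored visually 14 days later, 0-100% versus untreated plants.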

[2] = system: Key Broadleaf Weed and Crop Species; assay: Post-Emergent Test II (Table 5); format: in vivo; conditions: post-emergence, 336 h; for pest or weed control at 70 g/ha: application rate 70 (kg ai/ha; footnote: g ai/ha); for pest or weed control at 140 g/ha: application rate 140 (kg ai/ha; footnote: g ai/ha)
Procedure, shortened: as §1

[3] = CYPSS, read-out: Visual Growth Reduction (%) 14 Days After Application CYPSS
[4] = DIGSA: crabgrass (Digitaria sanguinalis), read-out: Visual Growth Reduction (%) 14 Days After Application DIGSA
[5] = ECHSS, read-out: Visual Growth Reduction (%) 14 Days After Application ECHSS
[6] = ORYSS (crop), read-out: Visual Growth Reduction (%) 14 Days After Application ORYSS
[7] = SETFA: giant foxtail (Setaria faberi), read-out: Visual Growth Reduction (%) 14 Days After Application SETFA
[8] = SORVU: grain sorghum (Sorghum vulgare), read-out: Visual Growth Reduction (%) 14 Days After Application SORVU
[9] = TRZSS (crop), read-out: Visual Growth Reduction (%) 14 Days After Application TRZSS
[10] = ZEAMX: maize, corn (Zea mays), read-out: Visual Growth Reduction (%) 14 Days After Application ZEAMX
[11] = Abutilon theophrasti, ABUTH: velvetleaf (Abutilon theophrasti), read-out: Visual Growth Reduction (%) 14 Days After Application ABUTH
[12] = Amaranthus retroflexus, AMARE: redroot pigweed (Amaranthus retroflexus), read-out: Visual Growth Reduction (%) 14 Days After Application AMARE
[13] = Brassica napus, BRSSS: oilseed rape, canola (Brassica napus), read-out: Visual Growth Reduction (%) 14 Days After Application BRSSS
[14] = Chenopodium album, CHEAL: lambsquarters (Chenopodium album), read-out: Visual Growth Reduction (%) 14 Days After Application CHEAL
[15] = Euphorbia heterophylla, EPHHL: wild poinsettia (Euphorbia heterophylla), read-out: Visual Growth Reduction (%) 14 Days After Application EPHHL
[16] = Helianthus annuus, HELAN: sunflower (Helianthus annuus), read-out: Visual Growth Reduction (%) 14 Days After Application HELAN
[17] = Viola tricolor, VIOTR: wild pansy (Viola tricolor), read-out: Visual Growth Reduction (%) 14 Days After Application VIOTR

Cc1c(-c2cc(N)c(Cl)c(C(=O)O)n2)ccc(Cl)c1F [Compound 52]
melting point: 160 to 162 °C
pest or weed control at 70 g/ha [1, 3]: 85 to 94%
pest or weed control at 140 g/ha [1, 3]: 95 to 100%
pest or weed control at 70 g/ha [1, 4]: 0 to 29%
pest or weed control at 140 g/ha [1, 4]: 30 to 44%
pest or weed control at 70 g/ha [1, 5]: 30 to 44%
pest or weed control at 140 g/ha [1, 5]: 45 to 59%
pest or weed control at 70 g/ha [1, 6]: 0 to 29%
pest or weed control at 140 g/ha [1, 6]: 0 to 29%
pest or weed control at 70 g/ha [1, 7]: 0 to 29%
pest or weed control at 140 g/ha [1, 7]: 45 to 59%
pest or weed control at 70 g/ha [1, 8]: 0 to 29%
pest or weed control at 140 g/ha [1, 8]: 30 to 44%
pest or weed control at 70 g/ha [1, 9]: 45 to 59%
pest or weed control at 140 g/ha [1, 9]: 60 to 74%
pest or weed control at 70 g/ha [1, 10]: 45 to 59%
pest or weed control at 140 g/ha [1, 10]: 60 to 74%
pest or weed control at 70 g/ha [2, 11]: 95 to 100%
pest or weed control at 140 g/ha [2, 11]: 95 to 100%
pest or weed control at 70 g/ha [2, 12]: 95 to 100%
pest or weed control at 140 g/ha [2, 12]: 95 to 100%
pest or weed control at 70 g/ha [2, 13]: 95 to 100%
pest or weed control at 140 g/ha [2, 13]: 95 to 100%
pest or weed control at 70 g/ha [2, 14]: 95 to 100%
pest or weed control at 140 g/ha [2, 14]: 95 to 100%
pest or weed control at 70 g/ha [2, 15]: 75 to 84%
pest or weed control at 140 g/ha [2, 15]: 85 to 94%
pest or weed control at 70 g/ha [2, 16]: 95 to 100%
pest or weed control at 140 g/ha [2, 16]: 95 to 100%
pest or weed control at 70 g/ha [2, 17]: 85 to 94%
pest or weed control at 140 g/ha [2, 17]: 85 to 94%

COC(=O)c1nc(-c2ccc(C)nc2F)c(F)c(N)c1Cl [Compound 76]
melting point: 165 to 166 °C
pest or weed control at 70 g/ha [1, 3]: 0 to 29%
pest or weed control at 140 g/ha [1, 3]: 0 to 29%
pest or weed control at 70 g/ha [1, 4]: 75 to 84%
pest or weed control at 140 g/ha [1, 4]: 85 to 94%
pest or weed control at 70 g/ha [1, 5]: 75 to 84%
pest or weed control at 140 g/ha [1, 5]: 85 to 94%
pest or weed control at 70 g/ha [1, 6]: 0 to 29%
pest or weed control at 140 g/ha [1, 6]: 0 to 29%
pest or weed control at 70 g/ha [1, 7]: 45 to 59%
pest or weed control at 140 g/ha [1, 7]: 60 to 74%
pest or weed control at 70 g/ha [1, 8]: 45 to 59%
pest or weed control at 140 g/ha [1, 8]: 45 to 59%
pest or weed control at 70 g/ha [1, 9]: 30 to 44%
pest or weed control at 140 g/ha [1, 9]: 45 to 59%
pest or weed control at 70 g/ha [1, 10]: 0 to 29%
pest or weed control at 140 g/ha [1, 10]: 95 to 100%
pest or weed control at 70 g/ha [2, 11]: 85 to 94%
pest or weed control at 140 g/ha [2, 11]: 85 to 94%
pest or weed control at 70 g/ha [2, 12]: 95 to 100%
pest or weed control at 140 g/ha [2, 12]: 95 to 100%
pest or weed control at 70 g/ha [2, 13]: 85 to 94%
pest or weed control at 140 g/ha [2, 13]: 95 to 100%
pest or weed control at 70 g/ha [2, 14]: 95 to 100%
pest or weed control at 140 g/ha [2, 14]: 95 to 100%
pest or weed control at 70 g/ha [2, 15]: 95 to 100%
pest or weed control at 70 g/ha [2, 16]: 85 to 94%
pest or weed control at 140 g/ha [2, 16]: 95 to 100%
pest or weed control at 70 g/ha [2, 17]: 0 to 29%
pest or weed control at 140 g/ha [2, 17]: 0 to 29%

COC(=O)c1nc(-c2ccc(C(F)(F)F)nc2F)c(F)c(N)c1Cl [Compound 24]
melting point: 128 °C
pest or weed control at 70 g/ha [1, 3]: 45 to 59%
pest or weed control at 140 g/ha [1, 3]: 95 to 100%
pest or weed control at 70 g/ha [1, 4]: 0 to 29%
pest or weed control at 140 g/ha [1, 4]: 75 to 84%
pest or weed control at 70 g/ha [1, 5]: 45 to 59%
pest or weed control at 140 g/ha [1, 5]: 60 to 74%
pest or weed control at 70 g/ha [1, 6]: 0 to 29%
pest or weed control at 140 g/ha [1, 6]: 0 to 29%
pest or weed control at 70 g/ha [1, 7]: 75 to 84%
pest or weed control at 140 g/ha [1, 7]: 75 to 84%
pest or weed control at 70 g/ha [1, 8]: 30 to 44%
pest or weed control at 140 g/ha [1, 8]: 45 to 59%
pest or weed control at 70 g/ha [1, 9]: 0 to 29%
pest or weed control at 140 g/ha [1, 9]: 0 to 29%
pest or weed control at 70 g/ha [1, 10]: 0 to 29%
pest or weed control at 140 g/ha [1, 10]: 95 to 100%
pest or weed control at 70 g/ha [2, 11]: 75 to 84%
pest or weed control at 140 g/ha [2, 11]: 75 to 84%
pest or weed control at 70 g/ha [2, 12]: 75 to 84%
pest or weed control at 140 g/ha [2, 12]: 95 to 100%
pest or weed control at 70 g/ha [2, 13]: 60 to 74%
pest or weed control at 140 g/ha [2, 13]: 75 to 84%
pest or weed control at 70 g/ha [2, 14]: 95 to 100%
pest or weed control at 140 g/ha [2, 14]: 95 to 100%
pest or weed control at 70 g/ha [2, 15]: 85 to 94%
pest or weed control at 140 g/ha [2, 15]: 85 to 94%
pest or weed control at 70 g/ha [2, 16]: 95 to 100%
pest or weed control at 140 g/ha [2, 16]: 95 to 100%
pest or weed control at 70 g/ha [2, 17]: 0 to 29%
pest or weed control at 140 g/ha [2, 17]: 0 to 29%
